Experimental data taken from patent publication US20040254175A1, “Derivatives of phenoxy-n-'4-(isothiazolindin-1,1-dioxid-2yl)phenyl!-valerian-acid amide and other compounds as inhibitors of the coagulation factor xa in the treatment of thromboembolic diseases and tumors” (priority 2001, published 2004).
pIC50: −log10 of the molar value. Counter-ions that a name gives are not always drawn.

Assays:
FXa = FXa (Homo sapiens, UniProt P00742); experiment: Inhibition of factor Xa (FXa-IC50)
Excerpt: The inhibition of factor Xa by the compounds according to the invention and the measurement of the anticoagulant and antithrombotic activity can be determined by conventional in-vitro or in-vivo methods.

TF/FVIIa = TF/FVIIa (Homo sapiens, UniProt P08709); experiment: Inhibition of TF/factor VIIa (TF/FVIIa-IC50)
TF/FVIIa, sequence (P08709 213-466 limits assumed): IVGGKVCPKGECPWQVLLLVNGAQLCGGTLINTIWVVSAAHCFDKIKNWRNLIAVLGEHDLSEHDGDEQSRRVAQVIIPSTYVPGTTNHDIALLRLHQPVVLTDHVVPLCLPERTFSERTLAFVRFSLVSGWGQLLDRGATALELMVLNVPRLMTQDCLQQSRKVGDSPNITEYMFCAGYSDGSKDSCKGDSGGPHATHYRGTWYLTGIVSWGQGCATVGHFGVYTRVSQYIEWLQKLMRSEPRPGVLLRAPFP
TF/FVIIa, sequence (P08709 61-212 partner limits assumed): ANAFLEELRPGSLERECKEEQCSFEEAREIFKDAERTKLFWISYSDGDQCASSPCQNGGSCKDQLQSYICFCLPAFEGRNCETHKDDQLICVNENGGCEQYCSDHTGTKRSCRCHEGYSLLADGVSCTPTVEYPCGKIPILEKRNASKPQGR
TF/FVIIa, sequence (P13726 33-295 partner): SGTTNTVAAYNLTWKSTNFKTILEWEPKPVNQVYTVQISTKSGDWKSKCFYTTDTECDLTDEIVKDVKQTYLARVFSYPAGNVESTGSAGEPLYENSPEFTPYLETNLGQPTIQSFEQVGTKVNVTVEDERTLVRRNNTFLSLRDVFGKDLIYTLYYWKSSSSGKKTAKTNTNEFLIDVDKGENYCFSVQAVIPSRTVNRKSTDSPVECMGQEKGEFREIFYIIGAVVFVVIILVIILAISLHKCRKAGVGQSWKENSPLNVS

FXa, sequence (P00742 235-488 limits assumed): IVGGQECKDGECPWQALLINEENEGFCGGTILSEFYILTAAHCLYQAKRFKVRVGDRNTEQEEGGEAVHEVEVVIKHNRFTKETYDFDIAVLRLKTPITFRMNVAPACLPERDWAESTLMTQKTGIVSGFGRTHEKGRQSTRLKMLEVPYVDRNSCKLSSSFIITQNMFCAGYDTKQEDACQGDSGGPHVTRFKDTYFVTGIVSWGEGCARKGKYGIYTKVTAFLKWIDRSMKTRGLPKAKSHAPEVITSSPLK
FXa, sequence (P00742 41-179 partner limits assumed): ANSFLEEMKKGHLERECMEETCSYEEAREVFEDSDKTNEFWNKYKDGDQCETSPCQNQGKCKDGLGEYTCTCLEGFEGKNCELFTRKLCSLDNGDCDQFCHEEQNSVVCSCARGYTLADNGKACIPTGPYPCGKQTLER

Compound	pIC50 (FXa)	pIC50 (TF/FVIIa)
CCCC(Oc1cccc(C(=N)N)c1)C(=O)Nc1ccc(N2CCCS2(=O)=O)cc1 (stereo not shown) [AA, 2-(3-amidinophenoxy)-N-[4-(1,1-dioxoisothiazolidin-2-yl)phenyl]valeramide, acetate]	6.46	6.35
Cc1cc(NC(=O)C(Nc2cccc(CN)c2)c2ccccc2)ccc1N1CCCS1(=O)=O (stereo not shown) [BB, 2-(3-aminomethylphenylamino)-N-[4-(1,1-dioxoisothiazolidin-2-yl)-3-methylphenyl]-2-phenylacetamide, hydrochloride]	6.31	6.06
